Measurements taken from patent publication US6653311B1, “5-lipoxygenase inhibitors: (2-azinylamino) quinone derivatives” (Board of Supervisors of Louisiana State University, priority 2002, dated 2003).

Experiments:
COX-1 = COX-1 (Homo sapiens, UniProt P23219); assay: In vitro inhibition of COX-1 activity; conditions: read-out: COX-1 percent inhibition
Text: (§1) Percent inhibition mean values ±SD from at least three individual determinations are shown.

5-lipoxygenase (5-LO) = molecular target: T1, 5-lipoxygenase (5-LO) (Oryctolagus cuniculus, UniProt G1SNX0); assay: Radioisotopic assay of 5-LO activity (LTB4 formation from 14C-arachidonic acid) in rabbit peritoneal PMNL stimulated with A-23187; type: cell-based; conditions: for inhibition at 1 µM: rabbit peritoneal neutrophils (PMNL), mean ± s.d. of three experiments in duplicate, read-out: % Inhibition (percent inhibition of LTB4 formation); for in vitro 5-LO activity in words: peritoneal PMNL
T1 construct: Polymorphonuclear leukocytes (PMNLs) were purified from rabbits by glycogen-intraperitoneal elicited intraperitoneal recruitment; endogenous in cells; host or cells: rabbit peritoneal polymorphonuclear leukocytes (PMNL), glycogen-elicited
T1 sequence (G1SNX0 1-674): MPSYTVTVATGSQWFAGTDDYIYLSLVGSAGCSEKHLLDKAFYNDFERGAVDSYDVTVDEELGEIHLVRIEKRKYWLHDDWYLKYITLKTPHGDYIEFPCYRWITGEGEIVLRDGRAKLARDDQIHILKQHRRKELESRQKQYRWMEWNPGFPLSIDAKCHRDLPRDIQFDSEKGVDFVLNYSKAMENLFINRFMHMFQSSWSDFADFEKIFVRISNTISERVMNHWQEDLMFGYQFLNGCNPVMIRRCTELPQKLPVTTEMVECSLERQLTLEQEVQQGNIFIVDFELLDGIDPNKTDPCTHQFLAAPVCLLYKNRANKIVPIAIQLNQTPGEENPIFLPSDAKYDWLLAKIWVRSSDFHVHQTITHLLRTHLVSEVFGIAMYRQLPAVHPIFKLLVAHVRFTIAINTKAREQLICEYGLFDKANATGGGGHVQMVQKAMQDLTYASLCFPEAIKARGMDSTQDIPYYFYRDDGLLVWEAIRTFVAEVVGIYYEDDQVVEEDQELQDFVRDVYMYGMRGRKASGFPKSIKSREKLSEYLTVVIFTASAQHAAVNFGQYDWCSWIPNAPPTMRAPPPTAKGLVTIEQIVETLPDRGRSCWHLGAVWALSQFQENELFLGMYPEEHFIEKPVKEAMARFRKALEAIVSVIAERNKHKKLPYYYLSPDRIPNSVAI
Text: The 5-LO enzyme, which is found primarily in cells of myeloid origin such as polymorphonuclear leukocytes (“PMNL”), eosinophils, and macrophages, catalyzes the first step of the biochemical pathway in which arachadonic acid (“AA”) is,converted into LTA4. […] To test the inhibition of the quinone derivatives on the activity of 5-LO rabbit polymorphonuclear leucocytes (PMNLs) were used.
Polymorphonuclear leukocytes (PMNLs) were purified from rabbits by glycogen-intraperitoneal elicited intraperitoneal recruitment, as descrited in T. Yatabe et al., “Studies on 5-lipoxygenase inhibitors: I. Synthesis and 5-lipoxygenase inhibitory activity of novel hydroxanic acid derivatives,” chem. Pharm. Bull., vol. 46, pp. 966-972 (1998). An intraperitoneal injection of 300 mL of 0.1% (w/v) glycogen in sterile saline was administered 6 h before the rabbits were sacrificed by an intravascular injection of Nembutal. Peritoneal exudates were collected in 5 μM EGTA, and residual red cells were removed by lysis in ammonium chloride. These cell preparations were obtained with greater than 96% purity, as assessed by Wright-Giemsa staining and greater than 95% viability as assessed by Trypan blue exclusion.
PMNL cells in suspension were pre-incubated for 20 min at room temperature with ^14C-labeled arachadonic acid (AA) and diluted to 3000 cells μL^−1. Thereafter, the calcium ionophore A-23187 (1 μg/mL) was added to stimulate LTB4 production, and the cells further incubated for 15 min under stirring at 37° C. After incubation, the aqueous samples were successively shaken with a mixture of chloroform/methanol/formic acid (12:12:1) for 30 sec and then with chloroform for 10 sec. Organic phases containing LTB4, 5-HPETE (5-hydroperoxyeicosatetraenoic acid), diHPETEs (dihydroperoxyeicosatetraenoic acids), and prostaglandins (PGs) were pooled, evaporated to dryness under nitrogen and dissolved into a small amount of chloroform-MeOH (1:1). Separation of the 5-LO metabolites was performed by thin layer chromatography (TLC) on silica gel G plates developed in diethyl ether-hexane-acetic acid (60:40:1, v/v/v).
Bands containing 5-lipoxygenase (5-LO) metabolites were scraped from the TLC plates, and ^14C levels were quantitatively measured by liquid scintillation. 5-LO activity was an obtained from the amount of ^14C-arachidonic acid converted into LTB4 after the prelabeled PMNL cells were stimulated to produce LTB4 by the calcium ionophore as described above. IC50 was calculated as the concentration of the 5-LO antagonist that produced 50% inhibition of the metabolite conversion.
[…] IC50 values, calculated as theconcentration of test compound required to cause 50% inhibition of LTB4 formation, were also determined for some representative examples. […] These compounds, in general, correspond to compounds bearing the more lipophilic quinone fragments. […] See S. Ohkawa et al., “Dual Inhibition of Thromboxane A2 Synthetase and 5-Lipoxygenase with Scavenging Activity of Active Oxygen Species. Synthesis of a Novel Series of (3-Pyridylmethyl)benzoquinone Derivatives,” J. Med. Chem., vol. 34, pp. 267-276 (1991).

[1] = tested on: arachidonic acid-induced ear inflammation in mice; assay: Arachidonic acid-induced ear inflammation in mice (AAE test); type: in vivo; conditions: mice, topical
5-LO = molecular target: T2, 5-LO (Rattus norvegicus, UniProt P12527); assay: 5-LO inhibition by radioimmunoassay (RIA) in rat peritoneal PMNL; conditions: inhibitors at 'AM final concentration' [sic], mean ± SD
T2 sequence (P12527 1-673): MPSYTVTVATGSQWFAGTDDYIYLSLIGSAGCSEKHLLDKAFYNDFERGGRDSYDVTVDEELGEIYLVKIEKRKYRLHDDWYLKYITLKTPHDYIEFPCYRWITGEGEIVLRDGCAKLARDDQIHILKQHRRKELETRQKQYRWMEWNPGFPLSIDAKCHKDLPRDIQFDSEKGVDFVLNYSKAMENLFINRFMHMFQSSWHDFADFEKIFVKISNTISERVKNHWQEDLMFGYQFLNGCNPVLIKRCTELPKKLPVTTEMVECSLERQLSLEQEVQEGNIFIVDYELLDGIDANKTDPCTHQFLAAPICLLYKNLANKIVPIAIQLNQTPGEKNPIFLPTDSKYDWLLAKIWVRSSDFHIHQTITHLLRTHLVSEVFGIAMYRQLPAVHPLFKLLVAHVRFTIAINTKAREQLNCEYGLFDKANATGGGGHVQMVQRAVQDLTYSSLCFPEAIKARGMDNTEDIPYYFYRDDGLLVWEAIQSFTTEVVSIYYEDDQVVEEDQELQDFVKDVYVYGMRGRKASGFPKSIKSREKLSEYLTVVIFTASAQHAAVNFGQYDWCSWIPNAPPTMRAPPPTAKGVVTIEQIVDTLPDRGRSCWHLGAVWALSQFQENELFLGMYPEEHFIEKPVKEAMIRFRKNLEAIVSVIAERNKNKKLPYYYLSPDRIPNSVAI
Text: as §1

[2] = Mus musculus, 250 μg/ear, read-out: % inhibition of AA-induced ear inflammation

Chain of COX-1 (P23219 24-599): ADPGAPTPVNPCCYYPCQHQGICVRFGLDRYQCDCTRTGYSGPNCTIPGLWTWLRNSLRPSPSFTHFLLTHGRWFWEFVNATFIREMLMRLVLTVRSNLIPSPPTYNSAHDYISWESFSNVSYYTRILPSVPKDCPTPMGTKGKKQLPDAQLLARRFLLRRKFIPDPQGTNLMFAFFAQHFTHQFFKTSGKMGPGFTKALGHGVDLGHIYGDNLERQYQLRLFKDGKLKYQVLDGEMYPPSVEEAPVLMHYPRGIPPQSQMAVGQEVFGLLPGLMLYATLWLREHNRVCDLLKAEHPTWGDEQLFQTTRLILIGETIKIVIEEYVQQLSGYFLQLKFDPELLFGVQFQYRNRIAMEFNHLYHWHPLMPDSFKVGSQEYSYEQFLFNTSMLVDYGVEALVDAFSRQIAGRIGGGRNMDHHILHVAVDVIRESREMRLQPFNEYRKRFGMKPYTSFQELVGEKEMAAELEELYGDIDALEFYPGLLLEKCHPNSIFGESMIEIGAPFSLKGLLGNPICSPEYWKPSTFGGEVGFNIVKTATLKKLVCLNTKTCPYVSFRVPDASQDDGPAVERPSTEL

CC(=O)Oc1ccccc1C(=O)O [Aspirin, reference compound]
inhibition at 500 µM (COX-1): 83.1 ± 2%

O=C1C=CC(=O)C(Nc2ccccn2)=C1 [Compound 4a]
melting point: 102 to 104 °C

CC1=CC(=O)C=C(Nc2ccccn2)C1=O [Compound 4b, 2-Methyl-6-(pyridin-2-ylamino)-[1,4]benzoquinone]
inhibition at 1 µM (5-lipoxygenase (5-LO)): 86 ± 2.3%
melting point: 162 to 164 °C

CC1=C(C)C(=O)C(Nc2ccccn2)=CC1=O [Compound 4d, 2,3-Dimethyl-5-(pyridin-2-ylamino)-[1,4]benzoquinone]
inhibition at 1 µM (5-lipoxygenase (5-LO)): 88 ± 5.2%
change in vivo at 50 µg/ear ([1]; Mus musculus, 50 μg/ear, read-out: % inhibition of AA-induced ear inflammation): -18.3 ± 3.3%
change in vivo at 100 µg/ear ([1]; Mus musculus, 100 μg/ear, read-out: % inhibition of AA-induced ear inflammation): -27.8 ± 3.6%
change in vivo at 250 µg/ear [1, 2]: -35.9 ± 7.4%

O=C1C=C(Nc2ccccn2)C(=O)C(c2ccccc2)=C1 [Compound 4f, 2-Phenyl-6-(pyridin-2-ylamino)-[1,4]benzoquinone]
inhibition at 1 µM (5-lipoxygenase (5-LO)): 64 ± 4.3%
melting point: 165 to 167 °C

COC1=C(OC)C(=O)C(Nc2ccc(Cl)cn2)=C(C)C1=O [Compound 4g, 2-(5-Chloropyridin-2-ylamino)-5,6-dimethoxy-3-methyl-[1,4]benzoquinone]
melting point: 106 to 108 °C

COC1=C(OC)C(=O)C(Nc2ccc(Br)cn2)=C(C)C1=O [Compound 4h, 2-(5-Bromopyridin-2-ylamino)-5,6-dimethoxy-3-methyl-[1,4]benzoquinone]
melting point: 99 to 100 °C

CC1=C(Nc2ccccn2)C(=O)c2ccccc2C1=O [Compound 4j, 2-Methyl-3-(pyridin-2-ylamino)-[1,4]naphthoquinone]
melting point: 130 to 132 °C

O=C1C=C(Nc2ccc(Cl)cn2)C(=O)c2ccccc21 [Compound 4k, 2-(5-Choropyridin-2-ylamino)-[1,4]naphthoquinone]
inhibition at 1 µM (5-lipoxygenase (5-LO)): 24 ± 3.7%
in vitro 5-LO activity in words (5-lipoxygenase (5-LO)): significant inhibition of 5-LO
melting point: 251 to 252 °C

O=C1C=C(Nc2ccc(I)cn2)C(=O)c2ccccc21 [Compound 4m, 2-(5-Iodopyridin-2-ylamino)-[1,4]naphthoquinone]
melting point: 245 to 246 °C

O=C1C=C(Nc2ncc(Cl)cc2Cl)C(=O)c2ccccc21 [Compound 4n, 2-(3,5-Dichloropyridin-2-ylamino)-[1,4]naphthoquinone]
melting point: 249 to 250 °C

CC1=CC(=O)C=C(Nc2ncccn2)C1=O [Compound 4o, 2-Methyl-6-(pyrimidin-2-ylamino)-[l 4]benzoquinone]
inhibition at 1 µM (5-lipoxygenase (5-LO)): 56 ± 3.1%
melting point: 167 to 169 °C

COC1=C(OC)C(=O)C(Nc2ncccn2)=C(C)C1=O [Compound 4q, 2,3-Dimethoxy-5-methyl-6-(pyrimidin-2-ylamino)-[1.4]benzoquinone]
melting point: 132 to 134 °C

O=C1C=C(Nc2nccc(-c3ccccc3)n2)C(=O)c2ccccc21 [Compound 4u, 2-(4-Phenylpyrimidin-2-ylamino)-[1,4]naphthoquinone]
melting point: 229 to 230 °C

CC1=CC(=O)C=C(Nc2cnccn2)C1=O [Compound 4v, 2-Methyl-6-(pyrazin-2-ylamino)-[1,4]benzoquinone]
in vitro 5-LO activity in words (5-lipoxygenase (5-LO)): inactive

CC1=CC(=O)C(Nc2cnccn2)=CC1=O [Compound 4x, 2-Methyl-5-(pyrazin-2-ylamino)-[1,4]benzoquinone]
in vitro 5-LO activity in words (5-lipoxygenase (5-LO)): inactive
melting point: 134 to 136 °C

O=C1C=C(Nc2cnccn2)C(=O)c2ccccc21 [Compound 4y, 2-(Pyrazin-2-ylamino)-[i, 4]naphthoquinone]
activation (LTB4 formation) (5-lipoxygenase (5-LO); at 0.1 μM, PMNL): ^d180% activation at 0.1 μM.
in vitro 5-LO activity in words (5-lipoxygenase (5-LO)): agonist activity
melting point: 245 to 247 °C

COc1ccc2c(c1)c(CC(=O)O)c(C)n2C(=O)c1ccc(Cl)cc1 [Indometacin, reference compound]
change in vivo at 250 µg/ear [1, 2]: -26.6 ± 7.3%

CC(C)c1ccc2c(c1)c(SC(C)(C)C)c(CC(C)(C)C(=O)O)n2Cc1ccc(Cl)cc1 [MK-886, 3-[3-t-Butylthio-l-(p-chlorobenzyl)-5-isopropylindol-2-yl]-2,2-dimethylpropionic acid, reference compound]
% inhibition of AA-induced ear inflammation ([1]; 250 μg/ear): −25.7 ± 8.1%

CC(Cc1ccc(O)c(O)c1)C(C)Cc1ccc(O)c(O)c1 (stereo not shown) [NDGA, reference compound]
5-LO percent inhibition (5-LO): 92.0 ± 4.2%
